The supplement of paper PMC10307832

Experiments:
Assay in all cases: relative viability (nuclei count vs DMSO), 5 days (fraction); higher = more cells survive
[1] = compound: C(C(=O)C(=O)O)Br [Bromopyruvate] + Cc1cc(Nc2cc(N3CCN(C)CC3)nc(Sc3ccc(NC(=O)C4CC4)cc3)n2)n[nH]1 [Tozasertib] (partner 0.1 µM)
Outline: (§1)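 Relative viability divides the nuclei count in treated wells by that in vehicle wells. Lung cancer cell lines were seeded in 1536-well plates, dosed by pin tool the next day, and fixed and stained after 5 days in one step with final 0.05% Triton X-100, 1% formaldehyde and 1 ug/ml Hoechst. Dosing was a single drug or a fixed anchor-drug dose plus five library-drug doses (not always all listed) in √10 steps, and values are medians of duplicate plates imaged at 4×.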

[2] = compound: CC(O)(CS(=O)(=O)c1ccc(F)cc1)C(=O)Nc1ccc(C#N)c(C(F)(F)F)c1 [Bicalutamide] + CC(=O)c1c(C)c2cnc(Nc3ccc(N4CCNCC4)cn3)nc2n(C2CCCC2)c1=O [Palbociclib] (partner 0.5 µM)
Outline: as §1

[3] = compound: CC(O)(CS(=O)(=O)c1ccc(F)cc1)C(=O)Nc1ccc(C#N)c(C(F)(F)F)c1 [Bicalutamide] + CC1(C)CCC(c2ccc(Cl)cc2)=C(CN2CCN(c3ccc(C(=O)NS(=O)(=O)c4ccc(N[C@H](CCN5CCOCC5)CSc5ccccc5)c(S(=O)(=O)C(F)(F)F)c4)cc3)CC2)C1 [Navitoclax] (partner 0.5 µM)
Outline: as §1

[4] = compound: CC(O)(CS(=O)(=O)c1ccc(F)cc1)C(=O)Nc1ccc(C#N)c(C(F)(F)F)c1 [Bicalutamide] + C[C@]1(O)C[C@@H](c2nc(-c3ccc4ccc(-c5ccccc5)nc4c3)c3c(N)nccn32)C1 [Linsitinib] (partner 1 µM)
Outline: as §1

| Cell Line | relative viability ([1]; first compound 1 µM) | relative viability ([1]; first compound 3.162 µM) | relative viability ([1]; first compound 10 µM) | relative viability ([1]; first compound 31.62 µM) | relative viability ([1]; first compound 100 µM) | relative viability ([2]; first compound 0.08 µM) | relative viability ([2]; first compound 0.253 µM) | relative viability ([2]; first compound 0.8 µM) | relative viability ([2]; first compound 2.53 µM) | relative viability ([3]; first compound 0.08 µM) | relative viability ([3]; first compound 0.253 µM) | relative viability ([3]; first compound 0.8 µM) | relative viability ([3]; first compound 2.53 µM) | relative viability ([4]; first compound 0.08 µM) | relative viability ([4]; first compound 0.253 µM) | relative viability ([4]; first compound 0.8 µM) | relative viability ([4]; first compound 2.53 µM) |
| --- | --- | --- | --- | --- | --- | --- | --- | --- | --- | --- | --- | --- | --- | --- | --- | --- | --- |
| NCI-H1975 | 0.733 | 0.811 | 0.806 | 0.729 | 0.646 | 0.627 | 0.532 | 0.688 | 0.492 | 0.951 | 1.05 | 1.23 | 1.12 | 0.947 | 0.917 | 1.1 | 0.656 |
| CAL-12T | 0.362 | 0.589 | 0.242 | 0.294 | 0.308 | 0.505 | 0.352 | 0.533 | 0.329 | 1.22 | 1.39 | 1.35 | 1.09 | 0.69 | 0.777 | 1.04 | 0.814 |
| NCI-H1623 | 0.419 | 0.423 | 0.527 | 0.468 | 0.369 |  |  |  |  |  |  |  |  |  |  |  |  |
| HCC-44 | 0.953 | 1 | 0.997 | 1.02 | 0.882 | 0.953 | 1.03 | 1.04 | 0.944 | 0.921 | 0.949 | 0.924 | 0.982 | 0.67 | 0.664 | 0.691 | 0.788 |
| EKVX | 0.427 | 0.391 | 0.458 | 0.377 | 0.421 | 0.381 | 0.392 | 0.445 | 0.374 | 1.02 | 1.01 | 1.15 | 0.894 | 1.06 | 1.04 | 1.06 | 0.894 |
| NCI-H1703 |  |  |  |  |  |  |  |  |  | 0.998 | 0.985 | 1.45 | 0.484 | 0.815 | 0.79 | 0.833 | 0.495 |
| Calu-6 |  |  |  |  |  |  |  |  |  | 0.895 | 0.827 | 0.842 | 0.705 | 0.972 | 0.999 | 1.12 | 0.98 |
| EBC-1 |  |  |  |  |  |  |  |  |  | 0.477 | 0.491 | 0.372 | 0.296 | 0.874 | 0.874 | 1.05 | 0.858 |
| NCI-H358 | 0.0956 | 0.115 | 0.104 | 0.0945 | 0.0906 | 0.147 | 0.141 | 0.14 | 0.125 |  |  |  |  | 0.763 | 0.65 | 0.841 | 0.786 |
| IA-LM |  |  |  |  |  |  |  |  |  | 0.945 | 0.876 | 0.99 | 0.751 | 0.823 | 0.641 | 0.616 | 0.646 |
| NCI-H661 | 0.35 | 0.361 | 0.335 | 0.348 | 0.362 | 0.418 | 0.409 | 0.424 | 0.388 |  |  |  |  | 0.538 | 0.63 | 0.612 | 0.61 |
| NCI-H596 | 0.83 | 0.943 | 1.1 | 0.878 | 0.412 |  |  |  |  | 1.03 | 0.847 | 1.24 | 1.15 | 1.09 | 0.968 | 1.25 | 1.14 |
| NCI-H650 | 0.656 | 0.756 | 0.804 | 0.714 | 0.698 | 0.372 | 0.345 | 0.397 | 0.267 |  |  |  |  | 0.906 | 1.07 | 1.1 | 0.489 |
| NCI-H1792 |  |  |  |  |  | 0.653 | 0.569 | 0.759 | 0.614 | 0.5 | 0.619 | 0.77 | 0.674 | 0.585 | 0.412 | 0.549 | 0.48 |
| ChaGo-K-1 | 0.234 | 0.263 | 0.247 | 0.216 | 0.205 | 0.933 | 0.849 | 1.04 | 0.961 | 0.983 | 1.02 | 1.17 | 0.793 |  |  |  |  |
| NCI-H522 | 0.616 | 0.549 | 0.547 | 0.485 | 0.391 | 0.949 | 1.11 | 1.11 | 0.894 |  |  |  |  |  |  |  |  |
| NCI-H1299 |  |  |  |  |  |  |  |  |  | 1.02 | 1.04 | 1.03 | 1.04 | 1.04 | 1.03 | 1.17 | 1.01 |
| NCI-H1650 | 0.441 | 0.489 | 0.362 | 0.504 | 0.241 | 0.435 | 0.314 | 0.464 | 0.355 | 1.31 | 1.19 | 1.16 | 1.22 |  |  |  |  |
| NCI-H1648 | 0.514 | 0.573 | 0.412 | 0.522 | 0.613 |  |  | 0.317 | 0.254 |  |  |  |  |  |  |  |  |
| NCI-H2342 | 0.594 | 0.616 | 0.433 | 0.483 | 0.412 | 0.526 | 0.519 | 0.726 | 0.523 |  |  |  |  |  |  |  |  |
| SW 900 | 0.54 | 0.455 | 0.44 | 0.564 | 0.514 | 0.602 | 0.596 | 0.529 | 0.511 |  |  |  |  |  |  |  |  |
| A549 |  |  |  |  |  |  |  |  |  | 1.33 | 1.16 | 1.36 | 1.08 | 0.567 | 0.531 | 0.696 | 0.527 |
| NCI-H2170 | 0.689 | 0.708 | 0.798 | 0.761 | 0.868 | 0.378 | 0.34 | 0.438 | 0.397 | 0.553 | 0.506 | 0.661 | 0.591 |  |  |  |  |
| NCI-H1563 |  |  |  |  |  |  |  |  |  |  |  |  |  | 1.28 | 1.2 | 1.12 | 1.07 |
| ABC-1 | 0.178 | 0.195 | 0.155 | 0.146 | 0.166 | 0.698 | 0.474 | 0.808 | 0.601 |  |  |  |  | 0.912 | 0.889 | 0.768 | 0.861 |
| LCLC-103H | 0.515 | 0.446 | 0.466 | 0.466 | 0.544 | 0.467 | 0.478 | 0.53 | 0.51 |  |  |  |  | 1.04 | 1.04 | 1.14 | 1.05 |
